Where two headings read alike, the source gives them in different places.
Legend:
[1] = Serum and CSF minocycline steady-state levels in SCI trial subjects
Experimental: Drug or placebo infusions were continued for a total of 14 doses i.e., for 7 days after injury (FIG. 1). All infusions were administered through a subclavian central venous catheter for a 30-min period.
Each sample was centrifuged at 2000 rpm for 5 min to separate cellular matter. The supernatant was flash frozen and stored at −80° C. in aliquots.

acute traumatic SCI [2] = assay: ASIA motor recovery after acute traumatic SCI (randomized placebo-controlled trial); format: in vivo, human
Experimental: The research protocol disclosed herein was approved by the University of Calgary Conjoint Health Research Ethics Board. Between June 2004 and August 2008, all subjects presenting with motor deficit secondary to acute traumatic SCI to the Spine Service at the Foothills Medical Centre in Calgary, Calgary, Alberta, Canada, were immediately identified to the principal investigators and were assessed and screened for this trial (Clinical Trials Gov. Identifier No. NCT00559494). Those within 12 h of injury who met other inclusion criteria (Table 1) were offered enrolment. […] For this purpose, sets of 10 random numbers balanced for odd and even integers were computer generated. Sequentially numbered and sealed packaged kits containing minocycline or placebo were constructed from the randomization codes for each stratified group by an independent individual not otherwise involved in the trial. Patients were administered the next available treatment kit for their appropriate treatment group. With the exception of the bedside nurse responsible for study drug administration, all subjects and research personnel were blinded to treatment until the end of the study (FIG. 1). […] Clin. Exp. Pharmacol. Physiol. 1:299-308). […] Neurological function was assessed at intervals using the American Spinal Cord Injury Association (ASIA) standardized neurological examination and included the motor composites and sensory composites. These examinations were performed by a physical medicine and rehabilitation specialist at Day 1 (time of enrolment), Day 4, Day 5, Day 7, Week 3, Week 6, Week 12, Month 6, and Month 12 (Table 3). Day 1 scores were subtracted from each subsequent score to calculate improvement from baseline for graphing purposes. […] ASIA sensory scores were similarly evaluated. […] Functional recovery data were compared over all data points. […] All statistical tests were two-tailed (a=0.05).

acute traumatic SCI [3] = assay: ASIA sensory recovery (pinprick, light touch) after acute traumatic SCI; format: in vivo, human
Experimental: Clin. Exp. Pharmacol. Physiol. 1:299-308). […] Neurological function was assessed at intervals using the American Spinal Cord Injury Association (ASIA) standardized neurological examination and included the motor composites and sensory composites. These examinations were performed by a physical medicine and rehabilitation specialist at Day 1 (time of enrolment), Day 4, Day 5, Day 7, Week 3, Week 6, Week 12, Month 6, and Month 12 (Table 3). Day 1 scores were subtracted from each subsequent score to calculate improvement from baseline for graphing purposes. […] ASIA sensory scores were similarly evaluated. […] Functional recovery data were compared over all data points. […] All statistical tests were two-tailed (a=0.05).

[4] = cited from earlier work
MMP activity = conditions: cited from earlier work
SCI [5] = conditions: rats; three 30 mg/kg i.p. doses at 30 min, 60 min, 24 h after SCI; 28-day observation; cited from earlier work
SCI [6] = conditions: rats; i.p. every 12 h for 3 days, 90 mg/kg then 30 mg/kg; cited from earlier work
cervical SCI = conditions: rat; 90 mg/kg i.p. daily for 3 days; 42-day monitoring; cited from earlier work
[7] = 200 mg twice-daily intravenously
[8] = 800 mg loading dose tapered by 100 mg every 12 h to 400 mg, IV, 7 days

For `CN(C)c1ccc(O)c2c1C[C@H]1C[C@H]3[C@H](N(C)C)C(O)=C(C(N)=O)C(=O)[C@@]3(O)C(O)=C1C2=O` [minocycline, (2E,4S,4aR,5aS,12aR)-2-(amino-hydroxy-methylidene)-4,7-bis(dimethylamino)-10,11,12a-trihydroxy-4-a,5,5a,6-tetrahydro-4H-tetracene-1,3,12-trione], the CSF steady-state concentration [1, 7] was 1 µg/mL, the “time to serum steady state” value [1, 7] was ≤ 48 h and the serum steady-state concentration ([1]; 200 mg twice-daily intravenously, first five patients) was 4.2 µg/mL. For the same molecule, the “time to serum and CSF steady state” value ([1]; 800 mg loading dose tapered by 100 mg every 12 h to 400 mg, IV) was ≤ 24 h, the CSF steady state [1, 8] was 2.3 µg/mL and the serum steady-state concentration [1, 8] was 12.7 µg/mL. For the same molecule, the “ASIA motor recovery greater than placebo” value (acute traumatic SCI [2]; all subjects with data beyond 3 months (44), 3-12 month plateau, P=0.20) was 6 motor points, the “distribution of motor recovery difference vs placebo: lower extremity and new segment scores” value (acute traumatic SCI [2]; cervical SCI) was “majority of the difference” and the “distribution of motor recovery difference vs placebo: upper extremities, zone of partial preservation” value (acute traumatic SCI [2]; cervical SCI) was “Little difference”. For the same molecule, the “difference in ASIA motor score over placebo” value (shortened to “difference in ASIA motor score”) (acute traumatic SCI [2]; cervical SCI (n=25), 95% CI 0-28, P=0.05) was 14 point, the “motor recovery, low-dose vs high-dose groups” value (acute traumatic SCI [2]; cervical SCI subgroups (FIG. 5)) was “greater difference with higher doses” and the “difference in ASIA motor score” value (acute traumatic SCI [2]; cervical motor-complete (n=16), P=0.29) was 10 points. The “difference in ASIA motor score” value (acute traumatic SCI [2]; cervical motor-incomplete (n=9), P=0.12) was 22 points, the “difference in ASIA motor score” value (acute traumatic SCI [2]; cervical motor-incomplete, excluding one placebo subject with poor recovery (n=8), P=0.135) was 13 points and the “ASIA motor recovery benefit vs placebo” value (acute traumatic SCI [2]; thoracic SCI (n=17)) was “did not show any benefit”. The “ASIA pinprick sensory recovery greater than placebo” value (acute traumatic SCI [3]; all subjects, not statistically significant, P=0.15) was “nine”, the “ASIA light-touch sensory recovery greater than placebo” value (acute traumatic SCI [3]; all subjects, not statistically significant, P=0.27) was “seven” and the “ASIA light-touch score higher than placebo” value (acute traumatic SCI [3]; cervical motor-incomplete, P=0.20) was 20 light-touch points. For the same molecule, the “ASIA pinprick score higher than placebo” value (acute traumatic SCI [3]; cervical motor-incomplete, P=0.49) was 14 pinprick points, the “difference in sensory scores vs placebo” value (acute traumatic SCI [3]; thoracic SCI) was “No difference” and the “eliminated unchanged through the kidneys” value ([4]; human, in vivo) was “Eight to twelve”. For the same molecule, the “elimination in biologically active form through the feces” value ([4]; human, in vivo) was 20-35 % of the initial dose, the “metabolism to three inactive liver metabolites excreted in urine and feces” value ([4]; human, in vivo) was 50-60 % of the administered dose and the peak serum concentration ([4]; oral 150 mg) was “about 2 mg/L”. For the same molecule, the peak serum concentration ([4]; oral 300 mg) was “about 4 mg/L”, the half-life ([4]; oral or intravenous administration) was 16 h and the “inhibition of MMP activity” value (MMP activity) was “potent inhibitor”. The “recovery in functional hind limb motor control” value (SCI [5]) was “facilitated significant recovery”, the hindlimb motor function (SCI [6]) was “significantly increased” and the “functional or histological improvements” value (cervical SCI) was “did not result in any functional or histological improvements”.

Source: patent US20140274969A1 (priority 2013, published 2014)
